Source: paper PMC7417771, “Thiol-ene Enabled Chemical Synthesis of Truncated S-Lipidated Teixobactin Analogs” (Frontiers in Chemistry, 2020)
In brackets after ≈: the same amount, converted by molar mass. Where two headings read alike, the source gives them in different places. Positions of bridges follow the written chain, without caps; N, C: chain ends. Non-standard residues stand in square brackets, D forms with d. Residues, ends and D or L forms follow the SMILES beside them. *: point of attachment. Ethyl(2-palmitoyloxy) = CCCCCCCCCCCCCCCC(=O)OCC*; Ethyl(2-butanoyloxy) = CCCC(=O)OCC*; Ethyl(2-OBz) = O=C(OCC*)c1ccccc1; Lauroyl = CCCCCCCCCCCC(=O)*; X1 = CCCCCCCCCCCC(=O)OCC*; X3 = CCCCCCCC(=O)OCC*; X2 = CCCCCC(=O)OCC*; Mpa = O=C(O)CCS

Key:
[1] = system: S. epidermidis ATCC 14990; conditions: cited from earlier work; for MIC (S. epidermidis): Figure 1, ref Yang H. et al. (2016), Girt et al. (2018), Zong et al. (2018)
Experimental: Figure 1 Structures of teixobactin 1 and teixobactin analogs; Arg^10-teixobactin 2, lipobactin 3, and Lys^10-farnesylbactin 4. Examples of most relevant MICs from the literature are shown above each structure. Yang H. et al. ([2016]), Girt et al. ([2018]), Zong et al. ([2018]) The End^10, Arg^10 and Lys^10 substitutions (red) and the lipid moieties of lipobactin 3 and farnesylbactin 4 (blue) are highlighted. […] Lipobactin 3 was prepared using Fmoc-SPPS as described by the Nowick group (Yang H. et al., [2016]) and purified to 95% (Yang H. et al., [2016]). […] Despite the distinct similarity to lipobactin 3, in which hydrophobic residues 1–5 of teixobactin are also replaced with ...

[2] = system: Gram-positive bacterial species; conditions: range over species, ref Yang H. et al., 2016, cited from earlier work
Experimental: Despite this substitution, the L-Arg^10-teixobactin analog maintained excellent, albeit reduced potency, with MIC values ranging 1–4 μg/mL across a number of Gram-positive bacterial species (Yang H. et al., [2016]; Zong et al., [2018]). The rationale for this substitution being that the positive charge from the guanidinium group was the moiety responsible for eliciting antibacterial activity.

[3] = system: Staphylococcus aureus ATCC 29213; assay type: cell-based
Experimental: (§1) Microwave irradiated reactions were performed in a CEM (Matthews, NC) Discover SP, Model 908010 reactor. Dibenzofulvene measurements for the Fmoc release assay was performed in a Shimadzu (Kyoto, Japan) UV-1280 spectrophotometer at 290 nm. Analytical RP-HPLC was used to analyse final compounds and performed on a Dionex (Sunnyvale, CA) UltiMate 3000 system using a Waters (Milford, MA) Xterra MS C18 (5 μm 4.6 × 150 mm) column, and Chromeleon software was used for data processing. Buffer A: 0.1% (v/v) TFA in H2O; buffer B: 0.1% (v/v) TFA in MeCN. LC-MS was performed on an Agilent (Santa Clara, CA) 1260 Infinity with UV absorbance at λ = 214 nm equipped with an Agilent 6120 Quadrupole LC-MS using an Agilent Zorbax 300SB-C3 column (3.5 μm, 3.0 × 150 mm) column with a linear gradient of 5 – 95% B (ca. 3% B/min) at r.t., with a flow rate of 0.3 mL/min. Data processing was carried out by Agilent OpenLAB software. Buffer A: 0.1% (v/v) formic acid in H2O; buffer B: 0.1% (v/v) formic acid in MeCN. Crude peptides were purified on Dionex UltiMate 3000 preparative HPLC using Agilent Zorbax 300SB-C18 column (5 μm, 9.4 × 250 mm) and Chromeleon software was used for data processing. Ultraviolet irradiation was carried out using Spectroline (Westbury, NY) hand-held lamp EA-160/FA, 6W integrally filtered tube at 50 Hz, 0.17 A and λ = 365 nm. Biological assays were carried out inside a Thermo Fisher (Waltham, MA) HERAsafe KSP 12 biological safety cabinet on 96-well plates obtained from MediRay (Auckland, New Zealand). Mueller Hinton (MH) broth and Staphylococcus aureus ATCC 29213 was obtained from Thermo Fisher. Media and bacteria were incubated in N-Biotek (Geyonggi, South Korea) NB205L shaker.
Staphylococcus aureus ATCC 29213 was grown in non-cation adjusted Mueller Hinton (MH) broth at 37 °C with shaking (200 rpm). […] Overnight cultures of bacteria were diluted in fresh MH before adding 50 µL of inoculum to each well of the MIC plate, to achieve a final volume of 100 µL with a uniform CFU/ml of ~5 x10^5 in each well. Plates were incubated at 37 °C with shaking for 24 h before determining the MIC.

[4] = Analytical RP-HPLC retention time as measure of hydrophobicity; assay type: physicochemical; conditions: for RP-HPLC column retention time tR: chromatographic, analytical RP-HPLC, Waters Xterra MS C18 5 μm 4.6 × 150 mm, buffer A 0.1% TFA in H2O, buffer B 0.1% TFA in MeCN, used as measure of hydrophobicity; for Δt, retention time difference to lipobactin 3: tR of the compound minus tR of 3, same RP-HPLC C18 system; for Hydrophobicity relative to lipobactin 3 as judged by RP-HPLC retention time: in words
Experimental: We evaluated the antibiotic activity of the analogs 8a–8f against S. aureus using lipobactin 3 as a reference compound. Lipobactin 3 was prepared using Fmoc-SPPS as described by the Nowick group (Yang H. et al., [2016]) and purified to 95% (Yang H. et al., [2016]). […] To examine the reasons for the lack of bioactivity, the hydrophobicity of the S-lipidated teixobactin analogs as a function of lipid tail length were examined by analyses of their RP-HPLC retention times and compared to that of lipobactin 3 (Table 1).
as §1

[5] = system: methicillin-resistant Staphylococcus aureus (MRSA); conditions: cited from earlier work
From the text: Nature has historically been the primary source of medicinally important antibiotics (Moloney, [2016]). By screening soil microorganisms, Ling et al. discovered the novel antimicrobial peptide (AMP) teixobactin (1, Figure 1), isolated from bacterium Eleftheria terrae (Ling et al., [2015]). […] Crucially, resistance in S. aureus was not induced by exposure to sub-lethal doses of teixobactin. The lack of resistance wa ... || Figure 1 Structures of teixobactin 1 and teixobactin analogs; Arg^10-teixobactin 2, lipobactin 3, and Lys^10-farnesylbactin 4. Examples of most relevant MICs from the literature are shown above each structure. Yang H. et al. ([2016]), Girt et al. ([2018]), Zong et al. ([2018]) The End^10, Arg^10 and Lys^10 substitutions (red) and the lipid moieties of lipobactin 3 and farnesylbactin 4 (blue) are highlighted.

[6] = Figure 1, ref Yang H. et al. (2016), Girt et al. (2018), Zong et al. (2018)

**Q.** With `CCCCCCCCCCCC(=O)N[C@H](C(=O)N[C@@H](CO)C(=O)N[C@H]1C(=O)N[C@@H](C)C(=O)N[C@@H](CCCNC(=N)N)C(=O)N[C@@H]([C@@H](C)CC)C(=O)O[C@H]1C)[C@@H](C)CC` [Compound 3, lipobactin, reference compound] (Lauroyl-IS[dT]ARI; ester 3-C) as the compound, how does the “MIC (S. epidermidis)” value [1] read?
**A.** 4 µg/mL (≈ 4.85 µM)

**Q.** And the “MIC against S. epidermidis ATCC 14990” value ([1]; reported MIC, ref Yang H. et al., 2016)?
**A.** 4 µg/mL (≈ 4.85 µM)

**Q.** What about the “MIC across a range of Gram-positive bacterial species” value [2] of the same compound?
**A.** 4 to 8 µg/mL

**Q.** And the “MIC, S. aureus ATCC 29213” value ([3]; ATCC 29213, 24 h)?
**A.** 8 µM (≈ 6.59 µg/mL)

**Q.** And the “MIC, S. aureus ATCC 29213, converted to mass concentration” value ([3]; ATCC 29213, 24 h)?
**A.** ca. 6.5 μg/mL

**Q.** And the “RP-HPLC column retention time tR” value [4]?
**A.** 20.38 min

**Q.** And the “Δt, retention time difference to lipobactin 3” value (“Δt, retention time difference” below) [4]?
**A.** 0 min

**Q.** Which results are given for `CCCC(=O)OCCSCCC(=O)N[C@H](C(=O)N[C@@H](CO)C(=O)N[C@H]1C(=O)N[C@@H](C)C(=O)N[C@@H](CCCNC(=N)N)C(=O)N[C@@H]([C@@H](C)CC)C(=O)O[C@H]1C)[C@@H](C)CC` [Compound 8a] ([Mpa](Ethyl(2-butanoyloxy))IS[dT]ARI; ester 4-C)?
**A.** MIC, S. aureus ATCC 29213 ([3]; ATCC 29213, 24 h): > 128 µM; RP-HPLC column retention time tR [4]: 14.98 min; Hydrophobicity relative to lipobactin 3 as judged by RP-HPLC retention time [4]: more hydrophilic than 3; Δt, retention time difference to lipobactin 3 [4]: -5.4 min

**Q.** Which results are given for `CCCCCC(=O)OCCSCCC(=O)N[C@H](C(=O)N[C@@H](CO)C(=O)N[C@H]1C(=O)N[C@@H](C)C(=O)N[C@@H](CCCNC(=N)N)C(=O)N[C@@H]([C@@H](C)CC)C(=O)O[C@H]1C)[C@@H](C)CC` [Compound 8b] ([Mpa](X2)IS[dT]ARI; ester 4-C)?
**A.** MIC, S. aureus ATCC 29213 ([3]; ATCC 29213, 24 h): > 128 µM; RP-HPLC column retention time tR [4]: 16.88 min; Hydrophobicity relative to lipobactin 3 as judged by RP-HPLC retention time [4]: more hydrophilic than 3; Δt, retention time difference to lipobactin 3 [4]: -3.5 min

**Q.** Which results are given for `CCCCCCCC(=O)OCCSCCC(=O)N[C@H](C(=O)N[C@@H](CO)C(=O)N[C@H]1C(=O)N[C@@H](C)C(=O)N[C@@H](CCCNC(=N)N)C(=O)N[C@@H]([C@@H](C)CC)C(=O)O[C@H]1C)[C@@H](C)CC` [Compound 8c] ([Mpa](X3)IS[dT]ARI; ester 4-C)?
**A.** MIC, S. aureus ATCC 29213 ([3]; ATCC 29213, 24 h): > 128 µM; RP-HPLC column retention time tR [4]: 18.89 min; Δt, retention time difference to lipobactin 3 [4]: -1.5 min

**Q.** Which “MIC, S. aureus ATCC 29213” value ([3]; ATCC 29213, 24 h) does the source give for `CCCCCCCCCCCC(=O)OCCSCCC(=O)N[C@H](C(=O)N[C@@H](CO)C(=O)N[C@H]1C(=O)N[C@@H](C)C(=O)N[C@@H](CCCNC(=N)N)C(=O)N[C@@H]([C@@H](C)CC)C(=O)O[C@H]1C)[C@@H](C)CC` [Compound 8d] ([Mpa](X1)IS[dT]ARI; ester 4-C) here?
**A.** > 128 µM

**Q.** What about the “RP-HPLC column retention time tR” value [4] of the same compound?
**A.** 23.21 min

**Q.** What about the “Hydrophobicity relative to lipobactin 3 as judged by RP-HPLC retention time” value [4] of the same compound?
**A.** more hydrophobic than 3

**Q.** And the “Δt, retention time difference” value [4]?
**A.** +2.8 min

**Q.** For `CCCCCCCCCCCCCCCC(=O)OCCSCCC(=O)N[C@H](C(=O)N[C@@H](CO)C(=O)N[C@H]1C(=O)N[C@@H](C)C(=O)N[C@@H](CCCNC(=N)N)C(=O)N[C@@H]([C@@H](C)CC)C(=O)O[C@H]1C)[C@@H](C)CC` [Compound 8e] ([Mpa](Ethyl(2-palmitoyloxy))IS[dT]ARI; ester 4-C), which “MIC, S. aureus ATCC 29213” value ([3]; ATCC 29213, 24 h) is on record?
**A.** > 128 µM

**Q.** And the “RP-HPLC column retention time tR” value [4]?
**A.** 27.98 min

**Q.** And the “Hydrophobicity relative to lipobactin 3 as judged by RP-HPLC retention time” value [4]?
**A.** more hydrophobic than 3

**Q.** What about the “Δt, retention time difference” value [4] of the same compound?
**A.** +7.6 min

**Q.** For `CC[C@H](C)[C@H](NC(=O)CCSCCOC(=O)c1ccccc1)C(=O)N[C@@H](CO)C(=O)N[C@H]1C(=O)N[C@@H](C)C(=O)N[C@@H](CCCNC(=N)N)C(=O)N[C@@H]([C@@H](C)CC)C(=O)O[C@H]1C` [Compound 8f] ([Mpa](Ethyl(2-OBz))IS[dT]ARI; ester 4-C), which “MIC, S. aureus ATCC 29213” value ([3]; non-cation adjusted Mueller Hinton broth, two-fold dilution 128 to 0.0625 µM, ~5 x10^5 CFU/ml, 37 °C with shaking, 24 h, lowest concentration at which growth did not occur) is on record?
**A.** > 128 µM

**Q.** What about the “RP-HPLC column retention time tR” value [4] of the same compound?
**A.** 15.93 min

**Q.** And the “Δt, retention time difference” value [4]?
**A.** -4.5 min

**Q.** With L-Arg^10-teixobactin [Compound 2] as the compound, how does the “MIC (S. epidermidis)” value [1] read?
**A.** 1 µg/mL

**Q.** And the “MIC values across a number of Gram-positive bacterial species” value ([2]; Zong et al., 2018)?
**A.** 1 to 4 µg/mL

**Q.** And the “MIC across a range of Gram-positive bacterial species” value [2]?
**A.** 1 to 4 µg/mL

**Q.** And the “MIC (MRSA)” value [5, 6]?
**A.** 2 µg/mL

**Q.** What does the source list for teixobactin [Compound 1]?
**A.** MIC (MRSA) [5, 6]: 0.25 µg/mL; MIC (MRSA) ([5]; ref Ling et al., 2015): 0.25 µg/mL
